Results taken from PMC10545747, “Development of cyclopeptide inhibitors of cGAS targeting protein-DNA interaction and phase separation” (Nature Communications, 2023).
“And” between values parts separate entries of the source, which are not always exact repeats. Equal entries are not always repeated. Where two headings read alike, the source gives them in different places. Square brackets hold non-standard residues; d marks the D form. Peptide text beside a SMILES is read from it. Hyp = O=C(O)[C@@H]1C[C@@H](O)CN1

Biological target: T1, recombinant human cGAS enzyme (hcGAS-ΔN, residues 147–522) (Homo sapiens, UniProt Q8N884)
T1 construct: N-terminally truncated human cGAS (hcGAS-ΔN, residues 147–522); 6xHis-SUMO (N, cleaved yes); made in house; host or cells: Escherichia coli BL21 (DE3)
Assay: RNA-based fluorescent biosensor assay of cGAS activity (2',3'-cGAMP formation), in vitro screening
Format: biochemical
Conditions: for Remaining activity (%), Fig. 1a source data / remaining activity at 20 µM: 20 μM, replicate values; for remaining activity at 20 µM: read-out: Remaining activity (%), Fig. 1a source data
Description: To screen direct cGAS inhibitors targeting protein-DNA interface from our developed focused library of macrocyclic peptides, we applied an RNA-based fluorescent biosensor for 2’,3’-cGAMP to detect cGAS activity in vitro (Supplementary Fig. 1a)[49]. The formation of 2’,3’-cGAMP from ATP and GTP was catalyzed by recombinant human cGAS enzyme (hcGAS-ΔN, residues 147–522, Supplementary Fig. 1b) in the presence of ISD (interferon stimulatory DNA, a 45-bp dsDNA), which was readily quantified by the RNA-based fluorescent biosensor and was further confirmed by ion exchange chromatography (Supplementary Fig. 1c). […] Subsequently, a total of 90 macrocyclic peptides were screened at a concentration of 20 μM (Fig. 1a and Supplementary Fig. 1e), and 4 hits (XQ2, XQ8, XQ19, and XQ46) were obtained for further testing at a cut-off of 40% inhibition (Supplementary Table 1). To evaluate the inhibitory effect of the hits against cGAS in cells, we employed real-time quantitative PCR (qPCR) to examine mRNA levels of IFNΒ1 in THP1 cells. The reported cGAS inhibitor RU.521 was used as the positive control, and the non-active peptide XQ28 in the screening assay was used as the negative control. […] The inhibition of cGAS by these hits was further confirmed in the reporter cell line THP1-Lucia ISG (Invivogen) that expresses secreted luciferase induced by an IRF3-inducible ISG54 promoter (Fig. 1c). The discrepancy between the inhibitory effect of the hits in protein and cellular assays may be attributed to their different cellular permeability.
The high-throughput screening (HTS) experiments of cGAS activity are based on the method previously described. To initiate the enzyme reaction, ISD was added to the reaction solution (40 mM Tris-HCl, pH 7.5, 100 mM NaCl, 10 mM MgCl2) containing hcGAS-ΔN, ATP (Sangon Biotech, Cat# A600311) and GTP (Sangon Biotech, Cat# A620332) in a total volume of 20 ul with the final concentration of 0.5 μM, 1.5 μM, 1 mM, 1 mM, respectively, and incubated for 2 h at 37 °C. For HTS experiments, compounds were added to the same reaction conditions as described above with the final concentration of 20 μM. Z’ factors were calculated from three replicates in the 384-well plate.

[1] = peptides screened at 20 μM, Supplementary Table 1 / Fig. S5b, read-out: Inhibition %
[2] = peptides screened at 20 μM, Supplementary Table 1 / Fig. S5b

T1 sequence (Q8N884 147-522, stated change not applied): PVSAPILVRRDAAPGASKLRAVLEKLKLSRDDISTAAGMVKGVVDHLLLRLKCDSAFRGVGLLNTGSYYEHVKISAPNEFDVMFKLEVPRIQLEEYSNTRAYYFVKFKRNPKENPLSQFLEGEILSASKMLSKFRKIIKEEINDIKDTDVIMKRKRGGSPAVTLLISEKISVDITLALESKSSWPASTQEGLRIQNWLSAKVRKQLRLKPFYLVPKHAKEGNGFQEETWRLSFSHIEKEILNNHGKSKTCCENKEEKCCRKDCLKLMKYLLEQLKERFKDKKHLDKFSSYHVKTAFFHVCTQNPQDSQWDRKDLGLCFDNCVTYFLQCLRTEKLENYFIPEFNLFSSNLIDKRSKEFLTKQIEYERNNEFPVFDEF

Row | Compound | inhibition at 20 µM [1] [%] | Remaining activity (%), Fig. 1a source data | Inhibition % [2] [%] | remaining activity at 20 µM [%] | inhibition at 20 µM [%]
1 | Cyclo (LaP(T(Bzl))RLaPTR) [XQ41] |  | 101.101% and 103.439% and 102.283% | 0 |  | 
2 | CC(C)C[C@@H]1NC(=O)[C@H](CCCNC(=N)N)NC(=O)[C@H](C(C)C)NC(=O)[C@@H]2CCCN2C(=O)[C@@H](C)NC(=O)[C@H](C)NC(=O)[C@H](CCCNC(=N)N)NC(=O)[C@H](C(C)C)NC(=O)[C@@H]2CCCN2C(=O)[C@@H](C)NC1=O [XQ17, Cyclo (AaPVRLaPVR)] (cyclo(A[dA]PVRL[dA]PVR)) | 32 | 66.7673% and 68.063% |  | 67.2 | 
3 | CC(C)C[C@H]1NC(=O)[C@H](Cc2ccccc2)NC(=O)[C@H]2CCCN2C(=O)[C@@H]([C@H](C)O)NC(=O)[C@@H](CCCNC(=N)N)NC(=O)[C@@H](CC(C)C)NC(=O)[C@H](Cc2ccccc2)NC(=O)[C@H]2CCCN2C(=O)[C@@H](C(C)C)NC(=O)[C@@H](CCCNC(=N)N)NC1=O [XQ23, Cyclo (tpFlrvpFlr)] (cyclo(F[dL][dR][dT][dP]F[dL][dR][dV][dP])) | 0 | 103.183% and 102.415% |  | 103 | 
4 | CC(C)C[C@@H]1NC(=O)[C@H](CCCNC(=N)N)NC(=O)[C@H]([C@@H](C)O)NC(=O)[C@@H]2CCCN2C(=O)[C@@H](Cc2ccccc2)NC(=O)[C@H](C)NC(=O)[C@H](CCCNC(=N)N)NC(=O)[C@H]([C@@H](C)O)NC(=O)[C@@H]2CCCN2C(=O)[C@@H](Cc2ccccc2)NC1=O [XQ37, Cyclo (AfPTRLfPTR)] (cyclo(A[dF]PTRL[dF]PTR)) | 18 | 81.1407% and 81.3464% |  | 81 | 
5 | CC(C)C[C@@H]1NC(=O)[C@H](CCCNC(=N)N)NC(=O)[C@H](C)NC(=O)[C@@H]2CCCN2C(=O)[C@@H](Cc2ccccc2)NC(=O)[C@H](CC(C)C)NC(=O)[C@H](CCCNC(=N)N)NC(=O)[C@H](C)NC(=O)[C@@H]2CCCN2C(=O)[C@@H](Cc2ccccc2)NC1=O [XQ9, Cyclo (LfPARLfPAR)] (cyclo(ARL[dF]PARL[dF]P)) | 0 | 109.335% and 107.433% |  | 108 | 
6 | CC(C)C[C@@H]1NC(=O)[C@H](CCCNC(=N)N)NC(=O)[C@@H]2CCCN2C(=O)[C@@H](Cc2ccccc2)NC(=O)[C@H](CCCNC(=N)N)NC(=O)[C@H](C(C)C)NC(=O)[C@@H]2CCCN2C(=O)[C@@H](Cc2ccccc2)NC1=O [XQ25, Cyclo (fPVRfPRL)] (cyclo(L[dF]PVR[dF]PR)) | 0 | 114.007% and 112.821% |  | 112 | 
7 | CC(C)C[C@@H]1NC(=O)[C@H](CC(=O)O)NC(=O)[C@H](C(C)C)NC(=O)[C@@H]2CCCN2C(=O)[C@@H](Cc2ccccc2)NC(=O)[C@H](CC(C)C)NC(=O)[C@H](CCCNC(=N)N)NC(=O)[C@H](C(C)C)NC(=O)[C@@H]2CCCN2C(=O)[C@@H](Cc2ccccc2)NC1=O [XQ60, Cyclo (LfPVDLfPVR)] (cyclo(DL[dF]PVRL[dF]PV)) | 0 |  |  |  | 
8 | CC(C)C[C@@H]1NC(=O)[C@H](CCCNC(=N)N)NC(=O)[C@H](C(C)C)NC(=O)[C@@H]2CCCN2C(=O)[C@@H](CC(C)C)NC(=O)[C@H](C)NC(=O)[C@H](CCCNC(=N)N)NC(=O)[C@H](C(C)C)NC(=O)[C@@H]2CCCN2C(=O)[C@@H](Cc2ccccc2)NC1=O [XQ49, Cyclo (AlPVRLfPVR)] (cyclo(A[dL]PVRL[dF]PVR)) |  |  |  |  | 0
9 | CC(C)C[C@@H]1NC(=O)[C@H](C)NC(=O)[C@H](C(C)C)NC(=O)[C@@H]2CCCN2C(=O)[C@@H](Cc2ccccc2)NC(=O)[C@H](CC(C)C)NC(=O)[C@H](CCCNC(=N)N)NC(=O)[C@H](C(C)C)NC(=O)[C@H](CCCNC(=N)N)NC(=O)[C@@H](Cc2ccccc2)NC1=O [XQ45, Cyclo (LfRVRLfPVA)] (cyclo(AL[dF]RVRL[dF]PV)) | 0 | 110.841% and 109.702% |  | 115 | 
10 | CC(C)C[C@@H]1NC(=O)[C@H](CCCNC(=N)N)NC(=O)[C@H]([C@@H](C)O)NC(=O)[C@@H]2CCCN2C(=O)[C@@H](Cc2ccccc2)NC(=O)[C@H](CC(C)C)NC(=O)[C@H](CCCNC(=N)N)NC(=O)[C@H]([C@@H](C)O)NC(=O)[C@H](C)NC(=O)[C@@H](Cc2ccccc2)NC1=O [XQ35, Cyclo (LfATRLfPTR)] (cyclo(ATRL[dF]PTRL[dF])) | 0 | 106.53% and 106.617% |  | 106 | 
11 | CC(C)C[C@@H]1NC(=O)[C@H](CCCNC(=N)N)NC(=O)[C@H]([C@@H](C)O)NC(=O)[C@@H]2C[C@@H](O)CN2C(=O)[C@@H](Cc2ccccc2)NC(=O)[C@H](CC(C)C)NC(=O)[C@H](CCCNC(=N)N)NC(=O)[C@H]([C@@H](C)O)NC(=O)[C@@H]2CCCN2C(=O)[C@@H](Cc2ccccc2)NC1=O [XQ33, Cyclo (Lf(Hyp)TRLfPTR)] (cyclo([Hyp]TRL[dF]PTRL[dF])) | 2 | 98.2995% and 98.5649% |  | 97.1 | 
12 | N=C(N)NCCC[C@@H]1NC(=O)[C@@H]2CCCN2C(=O)[C@H](Cc2ccccc2)NC(=O)[C@H](CCCNC(=N)N)NC(=O)[C@@H]2CCCN2C(=O)[C@@H](Cc2ccccc2)NC1=O [XQ27, Cyclo (RfPRFP)] (cyclo(FPR[dF]PR)) | 0 | 109.194% and 109.746% |  | 107 | 
13 | CC(C)C[C@@H]1NC(=O)[C@H](CCCNC(=N)N)NC(=O)[C@H](C(C)C)NC(=O)[C@@H]2CCCN2C(=O)[C@@H](Cc2ccccc2)NC(=O)[C@H](CC(C)C)NC(=O)[C@H](CCCNC(=N)N)NC(=O)[C@H](C(C)C)NC(=O)[C@@H]2CCCN2C(=O)[C@@H](C)NC1=O [XQ1, Cyclo (LaPVRLfPVR)] (cyclo(L[dA]PVRL[dF]PVR)) | 23 | 76.5914% and 76.7702% |  | 76.9 | 

Continued, in another order:

Row | inhibition at 20 µM [1] [%] | Remaining activity (%), Fig. 1a source data | Inhibition % [2] [%] | remaining activity at 20 µM [%] | Compound | inhibition at 20 µM [%]
14 | 0 |  |  |  | CC(C)C[C@@H]1NC(=O)[C@H](CCCNC(=N)N)NC(=O)[C@H]([C@@H](C)O)NC(=O)[C@@H]2CCCN2C(=O)[C@@H](Cc2ccccc2)NC(=O)[C@H](C)NC(=O)[C@H](CC(=O)O)NC(=O)[C@H](C)NC(=O)[C@@H]2CCCN2C(=O)[C@@H](Cc2ccccc2)NC1=O [XQ79, Cyclo (LfPADAfPTR)] (cyclo(ADA[dF]PTRL[dF]P)) | 
15 |  |  | 0 |  | Cyclo (AaRTDLfPVR) [XQ89] | 
16 | 0 |  |  |  | CC(C)C[C@@H]1NC(=O)[C@H](CCCNC(=N)N)NC(=O)[C@H](C(C)C)NC(=O)[C@@H]2CCCN2C(=O)[C@@H](Cc2ccccc2)NC(=O)[C@H](CC(C)C)NC(=O)[C@H]([C@@H](C)O)NC(=O)[C@@H]2CCCN2C(=O)[C@@H](Cc2ccccc2)NC(=O)[C@H](CC(=O)O)NC1=O [XQ63, Cyclo (LDfPTLfPVR)] (cyclo(D[dF]PTL[dF]PVRL)) | 
17 | 0 |  |  |  | CC(C)C[C@@H]1NC(=O)[C@H](CC(=O)O)NC(=O)[C@H](CCCNC(=N)N)NC(=O)[C@H](C(C)C)NC(=O)[C@@H]2CCCN2C(=O)[C@@H](Cc2ccccc2)NC(=O)[C@H](CC(C)C)NC(=O)[C@H]([C@@H](C)O)NC(=O)[C@@H]2CCCN2C(=O)[C@@H](Cc2ccccc2)NC1=O [XQ64, Cyclo (DLfPTLfPVR)] (cyclo(DL[dF]PTL[dF]PVR)) | 
18 |  |  | 0 |  | Cyclo (LfPTDLf(Orn(Dde))VR) [XQ70] | 
19 |  |  | 0 |  | Cyclo (LwPVD(Nle)f(K(Dde))IR) [XQ75] | 
20 |  |  | 5 |  | Cyclo (LfPTDLfPVR) [XQ90] | 
21 |  |  | 0 |  | Cyclo (LwPVDLf(K(Dde))VR) [XQ74] | 
